From ChEMBL document CHEMBL1155978, “Identification of positron emission tomography ligands for NPY Y5 receptors in the brain” (Bioorg Med Chem Lett, 2009)
Each block holds one compound with its values, some of them ahead of it.

How the values were obtained:
Cerebrospinal fluid = assay: Drug level in rat cerebrospinal fluid at 3 mg/kg, iv; assay type: ADME, organism-based; parameters: dose 3 mg/kg, route intravenous; details: in vivo, read-out: Drug uptake; note: time not given here
[1] = Ratio of drug level in rat brain to plasma at 3 mg/kg, iv; assay type: ADME, organism-based; parameters: dose 3 mg/kg, route intravenous
LLC-PK1 [2] = assay: Efflux ratio of permeability from […] side in human MDR1 gene transfected pig LLC-PK1 cells; assay type: ADME, cell-based, Sus scrofa
[3] = target: T1, Neuropeptide Y receptor type 5 (Homo sapiens, UniProt Q15761); assay: Displacement of [125I]PYY from human recombinant NPY Y5 receptor expressed in mouse LMtk cells; assay type: cell-based
T1 sequence (Q15761 whole entry): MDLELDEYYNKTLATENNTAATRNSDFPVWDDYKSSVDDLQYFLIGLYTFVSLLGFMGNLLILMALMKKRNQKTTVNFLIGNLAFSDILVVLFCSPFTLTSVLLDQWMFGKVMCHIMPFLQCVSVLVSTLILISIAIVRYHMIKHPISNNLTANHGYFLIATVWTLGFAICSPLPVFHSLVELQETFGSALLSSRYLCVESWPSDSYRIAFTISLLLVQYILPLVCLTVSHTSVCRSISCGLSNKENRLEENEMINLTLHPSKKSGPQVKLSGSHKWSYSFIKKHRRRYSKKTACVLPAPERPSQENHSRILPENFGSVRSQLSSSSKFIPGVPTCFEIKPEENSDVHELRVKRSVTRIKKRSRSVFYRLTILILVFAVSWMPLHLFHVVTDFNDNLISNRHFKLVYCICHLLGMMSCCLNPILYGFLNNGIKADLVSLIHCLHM

[4] = Lipophilicity, Log D at pH 7.4; details: buffer
Rattus norvegicus = assay: Plasma concentration in rat at 3 mg/kg, iv; assay type: ADME, organism-based; parameters: dose 3 mg/kg, route intravenous; details: in vivo; note: time not given here
Brain = assay: Drug level in rat brain at 3 mg/kg, iv; assay type: ADME, organism-based; parameters: dose 3 mg/kg, route intravenous; details: in vivo; for Drug uptake: time not given here
[5] = Ratio of drug level in cerebrospinal fluid to brain of rat at 3 mg/kg, iv; assay type: ADME, organism-based, CSF/Brain; parameters: dose 3 mg/kg, route intravenous; details: in vivo
LLC-PK1 [6] = assay: Efflux ratio of permeability from […] side in mouse mdr1a gene transfected pig LLC-PK1 cells; assay type: ADME, cell-based, Sus scrofa
[7] = target: T2, Neuropeptide Y receptor type 2 (Homo sapiens, UniProt P49146); assay: Inhibition of human NPY Y2 receptor
T2 sequence (P49146 whole entry): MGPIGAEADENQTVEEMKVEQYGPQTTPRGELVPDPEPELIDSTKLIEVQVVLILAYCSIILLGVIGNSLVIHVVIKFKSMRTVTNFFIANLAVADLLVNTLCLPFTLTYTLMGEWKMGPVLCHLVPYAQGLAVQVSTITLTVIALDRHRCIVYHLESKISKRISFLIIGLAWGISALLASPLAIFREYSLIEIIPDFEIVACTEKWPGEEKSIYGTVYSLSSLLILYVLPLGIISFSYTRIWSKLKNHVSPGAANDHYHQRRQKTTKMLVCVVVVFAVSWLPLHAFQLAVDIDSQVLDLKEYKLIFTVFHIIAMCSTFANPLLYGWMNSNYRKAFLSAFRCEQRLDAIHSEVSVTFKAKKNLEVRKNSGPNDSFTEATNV

[8] = target: Neuropeptide Y receptor type 4 (Homo sapiens, UniProt P50391); assay: Inhibition of human NPY Y4 receptor
Sequence of Neuropeptide Y receptor type 4 (P50391 whole entry): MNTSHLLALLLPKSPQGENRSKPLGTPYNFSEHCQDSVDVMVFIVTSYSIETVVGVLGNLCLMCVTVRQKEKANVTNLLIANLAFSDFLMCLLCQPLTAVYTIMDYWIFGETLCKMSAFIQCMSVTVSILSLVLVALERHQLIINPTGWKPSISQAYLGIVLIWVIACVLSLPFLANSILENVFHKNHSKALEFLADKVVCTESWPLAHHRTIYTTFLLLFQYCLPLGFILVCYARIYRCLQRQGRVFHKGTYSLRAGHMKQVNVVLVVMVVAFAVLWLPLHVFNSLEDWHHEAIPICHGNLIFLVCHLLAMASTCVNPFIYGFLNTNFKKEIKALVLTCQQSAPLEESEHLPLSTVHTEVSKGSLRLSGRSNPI

[9] = target: T3, Neuropeptide Y receptor type 1 (Homo sapiens, UniProt P25929); assay: Inhibition of human NPY Y1 receptor
T3 sequence (P25929 whole entry): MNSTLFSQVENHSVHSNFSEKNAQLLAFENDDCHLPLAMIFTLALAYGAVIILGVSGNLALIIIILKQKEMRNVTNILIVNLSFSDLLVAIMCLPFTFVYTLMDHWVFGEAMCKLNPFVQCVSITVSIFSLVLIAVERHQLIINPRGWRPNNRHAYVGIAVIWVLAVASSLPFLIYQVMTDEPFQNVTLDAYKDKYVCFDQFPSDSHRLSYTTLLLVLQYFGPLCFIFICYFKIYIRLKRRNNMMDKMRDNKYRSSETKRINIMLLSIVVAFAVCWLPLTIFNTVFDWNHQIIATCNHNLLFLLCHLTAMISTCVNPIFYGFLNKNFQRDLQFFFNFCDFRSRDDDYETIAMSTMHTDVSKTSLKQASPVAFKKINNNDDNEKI

concentration (Cerebrospinal fluid): 64 nM | Kp [1]: 0.11 | Ratio (LLC-PK1 [2]): 1.52 | IC50 [3]: 1.8 nM | logD [4]: 2.71 | concentration (Rattus norvegicus): 1500 nM | concentration (Brain; read-out: Drug uptake): 150 nM | Ratio [5]: 0.42 | Ratio (LLC-PK1 [6]): 9.51
Compound: O=C1O[C@]2(CC[C@H](C(=O)Nc3ncc(-c4cccc(OCF)c4)cn3)CC2)c2ccncc21

IC50 [3]: 2.7 nM
Compound: O=C1O[C@]2(CC[C@H](C(=O)Nc3ncc(-c4ccc(F)cc4)cn3)CC2)c2cnccc21

IC50 [3]: 2.2 nM
Compound: O=C1O[C@]2(CC[C@H](C(=O)Nc3ncc(-c4ccccc4OCF)cn3)CC2)c2ccncc21

concentration (Cerebrospinal fluid): 288 nM | Kp [1]: 0.5 | IC50 [7]: > 10000 nM | IC50 [8]: > 10000 nM | IC50 [9]: > 10000 nM | Ratio (LLC-PK1 [2]): 1.11 | IC50 [3]: 1.5 nM | logD [4]: 2.79 | concentration (Rattus norvegicus): 3100 nM | concentration (Brain; read-out: Cp): 1550 nM | Ratio [5]: 0.19 | Ratio (LLC-PK1 [6]): 4.43
Compound: O=C1O[C@]2(CC[C@H](C(=O)Nc3ncc(-c4ccccc4F)cn3)CC2)c2ccncc21

IC50 [3]: 2.6 nM | logD [4]: 2.71
Compound: O=C1O[C@]2(CC[C@H](C(=O)Nc3ncc(-c4ccccc4OCF)cn3)CC2)c2cnccc21

IC50 [3]: 1.8 nM | logD [4]: 2.79
Compound: O=C1O[C@]2(CC[C@H](C(=O)Nc3ncc(-c4ccccc4F)cn3)CC2)c2cnccc21

IC50 [3]: 3.1 nM
Compound: O=C1O[C@]2(CC[C@H](C(=O)Nc3ncc(-c4cccc(OCF)c4)cn3)CC2)c2cccnc21

concentration (Cerebrospinal fluid): 95 nM | Kp [1]: 0.37 | Ratio (LLC-PK1 [2]): 1.37 | IC50 [3]: 1.9 nM | logD [4]: 2.75 | concentration (Rattus norvegicus): 2040 nM | concentration (Brain; read-out: Drug uptake): 740 nM | Ratio [5]: 0.13 | Ratio (LLC-PK1 [6]): 8.23
Compound: O=C1O[C@]2(CC[C@H](C(=O)Nc3ncc(-c4cccc(OCF)c4)cn3)CC2)c2cnccc21

IC50 [3]: 2 nM
Compound: O=C1O[C@]2(CC[C@H](C(=O)Nc3ncc(-c4ccccc4)cn3)CC2)c2ccncc21

IC50 [3]: 2.9 nM | logD [4]: 2.71
Compound: O=C1O[C@]2(CC[C@H](C(=O)Nc3ncc(-c4ccccc4)cn3)CC2)c2ncccc21

IC50 [3]: 2.2 nM | logD [4]: 2.48
Compound: O=C1O[C@]2(CC[C@H](C(=O)Nc3ncc(-c4cccc(F)c4)cn3)CC2)c2cccnc21

IC50 [3]: 4.5 nM
Compound: O=C1O[C@]2(CC[C@H](C(=O)Nc3ncc(-c4ccccc4OCF)cn3)CC2)c2cccnc21

IC50 [3]: 2 nM | logD [4]: 2.54
Compound: O=C1O[C@]2(CC[C@H](C(=O)Nc3ncc(-c4ccccc4CF)cn3)CC2)c2cnccc21

concentration (Cerebrospinal fluid): 79 nM | Kp [1]: 0.3 | Ratio (LLC-PK1 [2]): 1.69 | IC50 [3]: 1.8 nM | logD [4]: 2.65 | concentration (Rattus norvegicus): 1220 nM | concentration (Brain; read-out: Drug uptake): 370 nM | Ratio [5]: 0.22 | Ratio (LLC-PK1 [6]): 7.9
Compound: O=C1O[C@]2(CC[C@H](C(=O)Nc3ncc(-c4cccc(CF)c4)cn3)CC2)c2cnccc21

IC50 [3]: 3 nM
Compound: O=C1O[C@]2(CC[C@H](C(=O)Nc3ncc(-c4ccccc4F)cn3)CC2)c2cccnc21

concentration (Cerebrospinal fluid): 308 nM | Kp [1]: 0.41 | Ratio (LLC-PK1 [2]): 1.41 | IC50 [3]: 1.5 nM | logD [4]: 2.78 | concentration (Rattus norvegicus): 3450 nM | concentration (Brain; read-out: Drug uptake): 1420 nM | Ratio [5]: 0.22 | Ratio (LLC-PK1 [6]): 7.78
Compound: O=C1O[C@]2(CC[C@H](C(=O)Nc3ncc(-c4cccc(F)c4)cn3)CC2)c2ccncc21

IC50 [3]: 1.8 nM
Compound: O=C1O[C@]2(CC[C@H](C(=O)Nc3ncc(-c4cccc(F)c4)cn3)CC2)c2cnccc21

IC50 [3]: 7.5 nM
Compound: O=C1O[C@]2(CC[C@H](C(=O)Nc3ncc(-c4ccc(F)cc4)cn3)CC2)c2cccnc21

IC50 [3]: 2.1 nM | logD [4]: 2.32
Compound: O=C1O[C@]2(CC[C@H](C(=O)Nc3ncc(-c4ccccc4)cn3)CC2)c2cccnc21

IC50 [3]: 1.8 nM | logD [4]: 2.65
Compound: O=C1O[C@]2(CC[C@H](C(=O)Nc3ncc(-c4ccccc4)cn3)CC2)c2cnccc21

IC50 [3]: 2.2 nM
Compound: O=C1O[C@]2(CC[C@H](C(=O)Nc3ncc(-c4ccc(F)cc4)cn3)CC2)c2ccncc21

IC50 [3]: 0.64 nM | logD [4]: 3.73
Compound: O=C1O[C@]2(CC[C@H](C(=O)Nc3ncc(-c4ccccc4)cn3)CC2)c2ccccc21

IC50 [3]: 2.3 nM
Compound: O=C1O[C@]2(CC[C@H](C(=O)Nc3ncc(-c4cccc(CF)c4)cn3)CC2)c2cccnc21
